Source: publication PMC11110727, “Exploiting thiol-functionalized benzosiloxaboroles for achieving diverse substitution patterns – synthesis, characterization and biological evaluation of promising antibacterial agents” (RSC Medicinal Chemistry, 2024)
In brackets after ≈: the same amount, converted by molar mass. Read-outs that look alike come from different tables or passages of the source.

Key:
C. krusei ATCC 6258 = assay: Antifungal activity: MIC/MFC, disc-diffusion; format: cell-based; settings: for diameter of inhibition zone: C. krusei ATCC 6258, (-) = zone not observed, paper discs 9 mm; for MIC: Pichia kudriavzevii, ATCC6258, read-out: MIC
Summary of the method: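 Yeast subcultured on Sabouraud dextrose agar 24–48 h at 30 °C before testing. Disc-diffusion and MIC per EUCAST and CLSI recommendations; MFC per CLSI. Compounds dissolved in DMSO.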

K. pneumoniae ATCC 13883 = assay: Antibacterial activity: MIC/MBC, MIC with PAβN, disc-diffusion; format: cell-based, Klebsiella pneumoniae; settings: K. pneumoniae ATCC 13883; for MIC: Klebsiella pneumoniae, ATCC13883, read-out: MIC
Summary of the method: (§1)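 MICs were measured by CLSI broth microdilution in Mueller–Hinton II broth, with or without the efflux-pump inhibitor PAβN (20 μg mL^−1) and with 1 mM MgSO4 present. A reduction of at least 4-fold with PAβN was counted as significant. Disc diffusion followed EUCAST/CLSI, MBC followed CLSI, and compounds were dissolved in DMSO.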

S. cerevisiae ATCC 9763 = assay: Antifungal activity: MIC/MFC, disc-diffusion; format: cell-based, Saccharomyces cerevisiae; settings: for diameter of inhibition zone / MFC: S. cerevisiae ATCC 9763; for diameter of inhibition zone: (-) = zone not observed, paper discs 9 mm; for MIC / MFC: Saccharomyces cerevisiae, ATCC9763; for MIC: read-out: MIC
Summary of the method: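 Disc-diffusion and broth MIC assays followed EUCAST and CLSI recommendations; MBC/MFC were determined per CLSI. Strains were subcultured twice before testing (bacteria on tryptic soy agar, yeasts on Sabouraud dextrose agar, 24–48 h, 30 °C). Compounds were dissolved in DMSO.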

P. mirabilis ATCC 12453 = assay: Antibacterial activity: MIC/MBC, MIC with PAβN, disc-diffusion; format: cell-based, Proteus mirabilis; settings: Proteus mirabilis, ATCC12453; P. mirabilis ATCC 12453; read-out: MIC
Summary of the method: as §1

[1] = system: S. maltophilia ATCC 13637; assay: as above; format: cell-based, Stenotrophomonas maltophilia; settings: S. maltophilia ATCC 13637; for MIC: Stenotrophomonas maltophilia, ATCC13637, read-out: MIC
Summary of the method: as §1

S. marcescens ATCC 13880 = assay: as above; format: cell-based, Serratia marcescens; settings: Serratia marcescens, ATCC13880; S. marcescens ATCC 13880; read-out: MIC
Summary of the method: as §1

E. faecium ATCC 6057 = assay: Antibacterial activity: MIC/MBC determination and disc-diffusion; format: cell-based; settings: Enterococcus faecium, ATCC6057, E. faecium ATCC 6057; for MIC: read-out: MIC
Summary of the method: (§2)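 Strains held at −80 °C were subcultured twice (TSA for bacteria, Sabouraud dextrose agar for yeasts; 24–48 h, 30 °C). MICs were then measured and disc diffusion run following EUCAST and CLSI guidance. Cidal endpoints (MBC, MFC) were assessed per CLSI.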

[2] = system: S. aureus ATCC 43300 MRSA; assay: as above; format: cell-based; settings: Staphylococcus aureus, S. aureus ATCC 43300 MRSA; for MIC: read-out: MIC
Summary of the method: as §2

E. faecalis ATCC 29212 = assay: as above; format: cell-based; settings: Enterococcus faecalis, ATCC29212, E. faecalis ATCC 29212; for MIC: read-out: MIC
Summary of the method: as §2

[3] = system: S. epidermidis ATCC 12228; assay: as above; format: cell-based; settings: Staphylococcus epidermidis, ATCC12228, S. epidermidis ATCC 12228; for MIC: read-out: MIC
Summary of the method: as §2

[4] = read-out: MBC (first MBC where Eagle effect)
[5] = PAβN 20 μg mL^−1, MHB + 1 mM MgSO4

Row | SMILES | diameter of inhibition zone (C. krusei ATCC 6258) [mm] | MIC (C. krusei ATCC 6258) [µg/mL] | MIC (K. pneumoniae ATCC 13883) [µg/mL] | diameter of inhibition zone (S. cerevisiae ATCC 9763) [mm] | MIC (S. cerevisiae ATCC 9763) [µg/mL] | MIC (P. mirabilis ATCC 12453) [µg/mL] | MIC [1] [µg/mL] | MIC (S. marcescens ATCC 13880) [µg/mL] | MBC (E. faecium ATCC 6057) [µg/mL] | MIC (E. faecium ATCC 6057) [µg/mL] | MBC [2, 4] [µg/mL] | MIC [2] [µg/mL] | MBC (E. faecalis ATCC 29212) [µg/mL] | MIC (E. faecalis ATCC 29212) [µg/mL] | MBC [3] [µg/mL] | MIC [3] [µg/mL] | MFC (S. cerevisiae ATCC 9763) [µg/mL] | MBC ([2]; value after the slash, read-out: second MBC (Eagle effect)) [µg/mL] | -fold reduction of MIC in the presence of PAβN [1, 5] | -fold reduction of MIC in the presence of PAβN (K. pneumoniae ATCC 13883; [5])
1 | C[Si]1(C)OB(O)c2cc(F)c(S)c(F)c21 [Compound 1e, 5,7-Difluoro-6-mercapto-1,1-dimethylbenzo[c][1,2,5]oxasilaborol-3(1H)-ol] | 13 | 400 (≈ 1630 µM) | > 400 | 17 | 200 (≈ 813 µM) | > 400 | > 400 | > 400 | 400 (≈ 1630 µM) | 12.5 (≈ 50.8 µM) | 25 (≈ 102 µM) | 12.5 (≈ 50.8 µM) | 100 (≈ 406 µM) | 12.5 (≈ 50.8 µM) | 50 (≈ 203 µM) | 1.56 (≈ 6.34 µM) |  |  |  | 
2 | Cc1cc(NC(=O)CCSc2c(F)cc3c(c2F)[Si](C)(C)OB3O)no1 [Compound 11, 3-((5,7-Difluoro-3-hydroxy-1,1-dimethyl-1,3-dihydrobenzo[c][1,2,5]oxasilaborol-6-yl)thio)-N-(5-methylisoxazol-3-yl)propanamide] |  | > 400 | > 400 |  | > 400 | > 400 | > 400 | > 400 |  | 200 (≈ 502 µM) | 400 (≈ 1000 µM) | 50 (≈ 126 µM) |  | 200 (≈ 502 µM) | 400 (≈ 1000 µM) | 25 (≈ 62.8 µM) |  |  |  | 
3 | C[Si]1(C)OB(O)c2ccc(SCC(=O)c3ccccc3)c(F)c21 [Compound 23, 2-((7-Fluoro-3-hydroxy-1,1-dimethyl-1,3-dihydrobenzo[c][1,2,5]oxasilaborol-6-yl)thio)-1-phenylethan-1-one] | 12 | 200 (≈ 578 µM) | > 400 | 24 | 25 (≈ 72.2 µM) | > 400 | > 400 | > 400 |  | 50 (≈ 144 µM) | 25 (≈ 72.2 µM) | 3.12 (≈ 9.01 µM) | 200 (≈ 578 µM) | 50 (≈ 144 µM) | 50 (≈ 144 µM) | 12.5 (≈ 36.1 µM) | 200 (≈ 578 µM) | 100 (≈ 289 µM) |  | 
4 | C[Si]1(C)OB(O)c2cc(F)c(SCCC#N)c(F)c21 [Compound 6, 3-((5,7-Difluoro-3-hydroxy-1,1-dimethyl-1,3-dihydrobenzo[c][1,2,5]oxasilaborol-6-yl)thio)propanenitrile] |  | > 400 | > 400 |  | > 400 | > 400 | > 400 | > 400 |  | 400 (≈ 1340 µM) | > 400 | 12.5 (≈ 41.8 µM) |  | 400 (≈ 1340 µM) |  | 50 (≈ 167 µM) |  |  | 2 -fold | 
5 | C[Si]1(C)OB(O)c2cc(F)c(SCCC(N)=O)c(F)c21 [Compound 7, 3-((5,7-Difluoro-3-hydroxy-1,1-dimethyl-1,3-dihydrobenzo[c][1,2,5]oxasilaborol-6-yl)thio)propanamide] |  | > 400 | > 400 |  | > 400 | > 400 | > 400 | > 400 |  | 200 (≈ 631 µM) |  | 100 (≈ 315 µM) |  | 400 (≈ 1260 µM) |  | 100 (≈ 315 µM) |  |  |  | 
6 | C[Si]1(C)OB(O)c2cc(F)c(SCCS(=O)(=O)c3ccccc3)c(F)c21 [Compound 20, 5,7-Difluoro-1,1-dimethyl-6-((2-(phenylsulfonyl)ethyl)thio)benzo[c][1,2,5]oxasilaborol-3(1H)-ol] |  | > 400 | > 400 | 16 | 400 (≈ 965 µM) | > 400 | > 400 | > 400 |  | 100 (≈ 241 µM) | 200 (≈ 483 µM) | 6.25 (≈ 15.1 µM) |  | 100 (≈ 241 µM) | 400 (≈ 965 µM) | 25 (≈ 60.3 µM) |  |  |  | 4 -fold
7 | C[Si]1(C)OB(O)c2ccc(SCCS(=O)(=O)c3ccccc3)c(F)c21 [Compound 21, 7-Fluoro-1,1-dimethyl-6-((2-(phenylsulfonyl)ethyl)thio)benzo[c][1,2,5]oxasilaborol-3(1H)-ol] |  | > 400 | > 400 | 30 | 6.25 (≈ 15.8 µM) | > 400 | > 400 | > 400 |  | 200 (≈ 505 µM) | 400 (≈ 1010 µM) | 12.5 (≈ 31.5 µM) |  | 200 (≈ 505 µM) |  | 25 (≈ 63.1 µM) | 100 (≈ 252 µM) |  |  | 
8 | C[Si]1(C)OB(O)c2ccc(S)c(F)c21 [Compound 2e, 7-Fluoro-6-mercapto-1,1-dimethylbenzo[c][1,2,5]oxasilaborol-3(1H)-ol] |  | > 100 | > 100 |  | > 100 | > 100 | > 100 | > 100 |  | 12.5 (≈ 54.8 µM) | 25 (≈ 110 µM) | 12.5 (≈ 54.8 µM) |  | 12.5 (≈ 54.8 µM) | 25 (≈ 110 µM) | 6.25 (≈ 27.4 µM) |  |  |  | 
9 | C[Si]1(C)OB(O)c2cc(F)c(SCCC(=O)N3CCOCC3)c(F)c21 [Compound 8, 3-((5,7-Difluoro-3-hydroxy-1,1-dimethyl-1,3-dihydrobenzo[c][1,2,5]oxasilaborol-6-yl)thio)-1-morpholinopropan-1-one] |  | > 400 | > 400 |  | > 400 | > 400 | > 400 | > 400 |  | 200 (≈ 516 µM) |  | 50 (≈ 129 µM) |  | 400 (≈ 1030 µM) |  | 100 (≈ 258 µM) |  |  |  | 
